Experimental data published in publication PMC9671208, “Synthesis, biological evaluation, and molecular docking of novel hydroxyzine derivatives as potential AR antagonists” (Frontiers in Chemistry, 2022).

Assays:
PC-3 = test: CCK-8 cytotoxicity assay, PC-3; type: cell-based, human; conditions: for IC50: Homo sapiens, PC-3 cells, CCK-8, 24 h, mean ± SD of three experiments
Protocol: (§1) Cell proliferation was measured using the CCK-8 assay kit ([Kaspers et al., 1997]; [Kaspers et al., 1998]; [Ding et al., 2010]). Cells were seeded into 96-well plates (>5*10^4) with approximately 100 ul of cell suspension per well and incubated in 37°C incubator for 4 h. Various concentrations of the compounds were then added and incubated for a further 24 h in a 37°C incubator. Finally, 10 ul CCK8 was added and incubated for 0.5–4 h, absorbance at 450 nm was determined. ([Guo et al., 2021]; [He et al., 2022a]; [Hu et al., 2022]).
(§2) The in vitro cytotoxic activity results of the synthesized derivatives 3–17 against human prostate cancer lines (PC-3, LNCaP, and DU145) and the human prostate epithelial cell line (WPMY-1) were evaluated, as shown in Table 1.

AR = biological target: T1, AR (Homo sapiens, UniProt P10275); test: AR reporter gene (luciferase) assay; type: cell-based; conditions: read-out: AR antagonistic activity % (10 μM)
T1 sequence (P10275 1-920): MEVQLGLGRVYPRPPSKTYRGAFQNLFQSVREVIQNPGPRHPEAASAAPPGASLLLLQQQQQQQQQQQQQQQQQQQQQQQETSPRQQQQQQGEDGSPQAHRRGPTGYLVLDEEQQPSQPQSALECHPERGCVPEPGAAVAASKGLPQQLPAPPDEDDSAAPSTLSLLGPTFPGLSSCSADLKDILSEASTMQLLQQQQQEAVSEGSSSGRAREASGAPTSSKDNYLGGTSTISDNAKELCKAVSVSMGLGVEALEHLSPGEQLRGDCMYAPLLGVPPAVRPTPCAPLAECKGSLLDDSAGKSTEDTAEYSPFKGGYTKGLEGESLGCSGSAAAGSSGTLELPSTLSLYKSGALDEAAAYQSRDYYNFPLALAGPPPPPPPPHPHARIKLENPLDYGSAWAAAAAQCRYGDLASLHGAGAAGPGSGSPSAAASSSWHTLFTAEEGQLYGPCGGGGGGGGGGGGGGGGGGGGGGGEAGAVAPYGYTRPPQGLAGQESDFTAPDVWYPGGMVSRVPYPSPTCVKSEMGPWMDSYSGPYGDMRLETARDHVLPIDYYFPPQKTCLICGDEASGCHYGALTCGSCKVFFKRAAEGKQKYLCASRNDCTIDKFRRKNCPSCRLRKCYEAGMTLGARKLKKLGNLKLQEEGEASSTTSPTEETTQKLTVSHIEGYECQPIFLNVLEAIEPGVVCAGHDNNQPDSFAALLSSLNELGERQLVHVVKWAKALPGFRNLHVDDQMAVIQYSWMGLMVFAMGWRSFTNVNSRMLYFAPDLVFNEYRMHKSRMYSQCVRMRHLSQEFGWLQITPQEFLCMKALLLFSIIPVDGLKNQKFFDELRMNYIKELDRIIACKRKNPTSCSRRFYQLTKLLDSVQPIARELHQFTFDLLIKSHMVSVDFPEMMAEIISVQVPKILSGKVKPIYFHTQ
Protocol: Firefly and Renilla luciferase activities, were determined using the Dual-Glo™luciferase assay kit. RLUs were determined using the GloMax®96-Microplate Luminometer.

WPMY-1 = test: CCK-8 cytotoxicity assay, WPMY-1 normal prostate epithelial cells; type: cell-based; conditions: WPMY-1 normal human prostate epithelial cells, CCK-8, 24 h; mean ± SD of three experiments
Protocol: as §1, §2

LNCaP = test: CCK-8 cytotoxicity assay, LNCaP; type: cell-based, human; conditions: for IC50: Homo sapiens, LNCaP cells, CCK-8, 24 h, mean ± SD of three experiments
Protocol: as §1, §2

DU145 = test: CCK-8 cytotoxicity assay, DU145; type: cell-based, human; conditions: for IC50: Homo sapiens, DU-145, DU145 cells, CCK-8, 24 h, mean ± SD of three experiments
Protocol: as §1, §2

OCCc1ccc(CN2CCN(C(c3ccccc3)c3ccccc3)CC2)cc1 [Compound 3, 2-(4-((4-benzhydrylpiperazin-1-yl)methyl)phenyl)ethan-1-ol]
IC50 (PC-3): 8.13 ± 0.12 µM
inhibition at 10 µM (AR): 40.17 ± 0.24%
IC50 (WPMY-1): > 50 µM
IC50 (LNCaP): 6.14 ± 0.58 µM
IC50 (DU145): 11.1 ± 0.76 µM
melting point: 122 to 123 °C

Cc1ccc(C(c2ccccc2)N2CCN(Cc3ccc(CCO)cc3)CC2)cc1 (stereo not drawn) [Compound 4, 2-(4-((4-(phenyl(p-tolyl)methyl)piperazin-1-yl)methyl)phenyl)ethan-1-ol]
cytotoxic activity against PC-3 cells (in words) (PC-3): strong cytotoxic activities
IC50 (PC-3): 2.56 ± 0.32 µM
inhibition at 10 µM (AR): 32.5 ± 0.65%
IC50 (WPMY-1): > 50 µM
cytotoxic activity against LNCaP cells (in words) (LNCaP): strong cytotoxic activities
IC50 (LNCaP): 4.67 ± 1.02 µM
cytotoxic activity against DU145 cells (in words) (DU145): strong cytotoxic activities
IC50 (DU145): 6.14 ± 0.24 µM
melting point: 125 to 126 °C

Cc1ccc(C(c2ccc(C)cc2)N2CCN(Cc3ccc(CCO)cc3)CC2)cc1 [Compound 5, 2-(4-((4-(di-p-tolylmethyl)piperazin-1-yl)methyl)phenyl)ethan-1-ol]
cytotoxic activity against PC-3 cells (in words) (PC-3): moderate activity
IC50 (PC-3): 12.1 ± 0.29 µM
inhibition at 10 µM (AR): 22.7 ± 0.72%
IC50 (WPMY-1): 37.51 ± 0.37 µM
IC50 (LNCaP): 3.73 ± 0.58 µM
cytotoxic activity against DU145 cells (in words) (DU145): moderate activity
IC50 (DU145): 9.82 ± 0.24 µM
melting point: 128 to 129 °C

COc1ccc(C(c2ccccc2)N2CCN(Cc3ccc(CCO)cc3)CC2)cc1 (stereo not drawn) [Compound 6, 2-(4-((4-((4-methoxyphenyl)(phenyl)methyl)piperazin-1-yl)methyl)phenyl)ethan-1-ol]
cytotoxic activity against PC-3 cells (in words) (PC-3): strong cytotoxic activities
IC50 (PC-3): 3.15 ± 0.48 µM
inhibition at 10 µM (AR): 30.75 ± 0.17%
IC50 (WPMY-1): > 50 µM
cytotoxic activity against LNCaP cells (in words) (LNCaP): strong cytotoxic activities
IC50 (LNCaP): 6.17 ± 1.02 µM
cytotoxic activity against DU145 cells (in words) (DU145): strong cytotoxic activities
IC50 (DU145): 2.17 ± 0.72 µM
melting point: 116 to 117 °C

OCCc1ccc(CN2CCN(C(c3ccccc3)c3ccc(F)cc3)CC2)cc1 (stereo not drawn) [Compound 7, 2-(4-((4-((4-fluorophenyl)(phenyl)methyl)piperazin-1-yl)methyl)phenyl)ethan-1-ol]
cytotoxic activity against PC-3 cells (in words) (PC-3): strong cytotoxic activities
IC50 (PC-3): 1.87 ± 0.22 µM
inhibition at 10 µM (AR): 38.7 ± 0.83%
IC50 (WPMY-1): 48.26 ± 0.41 µM
cytotoxic activity against LNCaP cells (in words) (LNCaP): strong cytotoxic activities
IC50 (LNCaP): 5.17 ± 0.63 µM
cytotoxic activity against DU145 cells (in words) (DU145): strong cytotoxic activities
IC50 (DU145): 2.17 ± 1.12 µM
melting point: 116 to 117 °C

OCCc1ccc(CN2CCN(C(c3ccc(F)cc3)c3ccc(F)cc3)CC2)cc1 [Compound 8, 2-(4-((4-(bis(4-fluorophenyl)methyl)piperazin-1-yl)methyl)phenyl)ethanol]
IC50 (PC-3): 10.12 ± 0.08 µM
inhibition at 10 µM (AR): 25.2 ± 0.71%
IC50 (WPMY-1): 35.53 ± 0.13 µM
IC50 (LNCaP): 4.92 ± 0.29 µM
IC50 (DU145): 12.3 ± 0.16 µM
melting point: 133 to 134 °C

OCCc1ccc(CN2CCN(C(c3ccccc3)c3ccc(Cl)cc3)CC2)cc1 (stereo not drawn) [Compound 9, 2-(4-((4-((4-chlorophenyl)(phenyl)methyl)piperazin-1-yl)methyl)phenyl)ethanol]
cytotoxic activity against PC-3 cells (in words) (PC-3): strong cytotoxic activities
IC50 (PC-3): 1.53 ± 0.16 µM
inhibition at 10 µM (AR): 28.42 ± 0.25%
IC50 (WPMY-1): > 50 µM
cytotoxic activity against LNCaP cells (in words) (LNCaP): strong cytotoxic activities
IC50 (LNCaP): 4.13 ± 0.06 µM
cytotoxic activity against DU145 cells (in words) (DU145): strong cytotoxic activities
IC50 (DU145): 7.63 ± 0.12 µM
melting point: 130 to 131 °C

OCCc1ccc(CN2CCN(C(c3ccc(Cl)cc3)c3ccc(Cl)cc3)CC2)cc1 [Compound 10, 2-(4-((4-(bis(4-chlorophenyl)methyl)piperazin-1-yl)methyl)phenyl)ethan-1-ol]
IC50 (PC-3): 15.24 ± 0.14 µM
inhibition at 10 µM (AR): 20.47 ± 0.18%
IC50 (WPMY-1): > 50 µM
IC50 (LNCaP): 7.14 ± 0.29 µM
IC50 (DU145): 10.8 ± 1.14 µM
melting point: 127 to 128 °C

OCCc1ccc(CN2CCN(Cc3ccccc3)CC2)cc1 [Compound 11, 2-(4-((4-benzylpiperazin-1-yl)methyl)phenyl)ethan-1-ol]
IC50 (PC-3): 20.4 ± 0.48 µM
inhibition at 10 µM (AR): 65.15 ± 0.57%
IC50 (WPMY-1): > 50 µM
IC50 (LNCaP): 11.2 ± 0.14 µM
IC50 (DU145): 11.3 ± 0.27 µM
melting point: 119 to 120 °C

CC(c1ccccc1)N1CCN(Cc2ccc(CCO)cc2)CC1 (stereo not drawn) [Compound 12, 2-(4-((4-(1-phenylethyl)piperazin-1-yl)methyl)phenyl)ethan-1-ol]
IC50 (PC-3): 13.7 ± 1.12 µM
inhibition at 10 µM (AR): 68.62 ± 0.38%
IC50 (WPMY-1): > 50 µM
IC50 (LNCaP): 7.76 ± 0.19 µM
IC50 (DU145): 16.3 ± 0.63 µM
melting point: 114 to 115 °C

Cc1ccc(CN2CCN(Cc3ccc(CCO)cc3)CC2)cc1 [Compound 13, 2-(4-((4-(4-methylbenzyl)piperazin-1-yl)methyl)phenyl)ethan-1-ol]
IC50 (PC-3): 15.4 ± 0.42 µM
inhibition at 10 µM (AR): 64.18 ± 0.45%
IC50 (WPMY-1): 47.14 ± 0.42 µM
IC50 (LNCaP): 22.1 ± 0.76 µM
IC50 (DU145): 17.2 ± 1.02 µM
melting point: 112 to 113 °C

COc1ccc(CN2CCN(Cc3ccc(CCO)cc3)CC2)cc1 [Compound 14, 2-(4-((4-(4-methoxybenzyl)piperazin-1-yl)methyl)phenyl)ethan-1-ol]
IC50 (PC-3): 11.1 ± 0.67 µM
inhibition at 10 µM (AR): 58.88 ± 0.23%
IC50 (WPMY-1): > 50 µM
IC50 (LNCaP): 16.2 ± 0.53 µM
IC50 (DU145): 24.1 ± 0.47 µM
melting point: 117 to 118 °C

OCCc1ccc(CN2CCN(Cc3ccc(F)cc3)CC2)cc1 [Compound 15, 2-(4-((4-(4-fluorobenzyl)piperazin-1-yl)methyl)phenyl)ethan-1-ol]
IC50 (PC-3): 10.5 ± 1.14 µM
inhibition at 10 µM (AR): 64.35 ± 0.17%
IC50 (WPMY-1): > 50 µM
IC50 (LNCaP): 18.45 ± 0.16 µM
IC50 (DU145): 16.2 ± 0.62 µM
melting point: 114 to 115 °C

OCCc1ccc(CN2CCN(Cc3ccc(Cl)cc3)CC2)cc1 [Compound 16, 2-(4-((4-(4-chlorobenzyl)piperazin-1-yl)methyl)phenyl)ethan-1-ol]
IC50 (PC-3): 14.4 ± 0.35 µM
inhibition at 10 µM (AR): 60.25 ± 0.35%
IC50 (WPMY-1): > 50 µM
IC50 (LNCaP): 16.4 ± 0.19 µM
IC50 (DU145): 31.5 ± 1.21 µM
melting point: 109 to 110 °C

OCCc1ccc(CN2CCN(C3c4ccccc4Sc4ccccc43)CC2)cc1 [Compound 17, 2-(4-((4-(9H-thioxanthen-9-yl)piperazin-1-yl)methyl)phenyl)ethan-1-ol]
IC50 (PC-3): 6.42 ± 0.52 µM
inhibition at 10 µM (AR): 36.5 ± 0.79%
IC50 (WPMY-1): > 50 µM
IC50 (LNCaP): 5.61 ± 0.86 µM
IC50 (DU145): 8.35 ± 0.28 µM
melting point: 121 to 122 °C

CC(C)(C)NC(=O)[C@H]1CC[C@H]2[C@@H]3CC[C@H]4NC(=O)C=C[C@]4(C)[C@H]3CC[C@]12C [Finasteride, reference compound]
IC50 (PC-3): 17.8 µM
IC50 (LNCaP): 13.5 µM
IC50 (DU145): 14.6 µM

COc1ccccc1N1CCN(CC(O)COc2cccc3ccccc23)CC1 (stereo not drawn) [Naftopidil, reference compound]
IC50 (PC-3): 42.1 ± 0.79 µM
IC50 (WPMY-1): > 50 µM
IC50 (LNCaP): 22.4 ± 0.61 µM
IC50 (DU145): 34.58 ± 0.31 µM
